# Data: PMC9131871, “Impact of Micropolymorphism Outside the Peptide Binding Groove in the Clinically Relevant Allele HLA-C*14 on T Cell Responses in HIV-1 Infection” (Journal of Virology, 2022)
# Columns and labels:
# HLA-C*14:03 = HLA-C*14:03 (Homo sapiens, UniProt P10321, A176E/A330V/A35S/A97T/C350S/D114A/D33S/L171W/L180R/L218V/M285V/M309V/M331V/P208H/Q277E/Q291P/R121W/R243W/R45H/S123F/S297R/S48A/T329A/T363A/V319A); experiment: LC-MS/MS identification of HLA-bound HIV-1 peptides from NL4-3-infected .221-C1403 cells; assay type: binding; design: key: ●: Closed circles indicate the peptide which was identified in HLA-C*1402 or/and -C*1403 expressing cells; settings: HIV-1 NL4-3-infected .221-C1403 cells, W6/32 immunoprecipitation, two independent replicate experiments
# Protocol: 721.221 cells expressing CD4 and HLA-C*14:02 (.221-C1402) or HLA-C*14:03 (.221-C1403) were infected with the laboratory-adapted NL4-3 HIV-1 strain. HLA-peptide complexes were isolated from cell lysates by immunoprecipitation with the anti-HLA class I antibody W6/32; then, peptides were eluted, fractionated by high-performance liquid chromatography (HPLC), and finally analyzed by LC-MS/MS. Two independent replicate experiments were performed, in which a total of 7,970 and 8,447 unique 8- to 13-mer peptide sequences were identified from .221-C1402 and .221-C1403 cells, respectively (Fig. 1A). Of these peptides, 6,163 were identified in both the C*14:02- and C*14:03-bound peptide data sets, while other peptides were detected in the acid-eluted fraction from only a single allele. […] These motifs are consistent with the HLA-C*1402/03 peptide motifs previously estimated using reported epitopes ([29]).
# .221-C1402 and .221-C1403 cells were infected with HIV-1 NL4-3 in a low volume of RPMI 1640 medium (Thermo Fisher) containing 10% fetal bovine serum (FBS), 2 mM L-glutamine, 100 U/mL penicillin, 100 μg/mL streptomycin, and 10 mM HEPES (R10). Fifty microliters of NL4-3 stock virus (Reverse transcriptase activity (RT) value = 4 × 10^2 ng/mL) was added to 8 × 10^6 .221-C1402 cells or .221-C1403, and the cells were then incubated for 1.5 h at 37°C, after which 20 mL of R10 was added and the cells were cultured overnight. At day 1 postinfection, a further 20 mL R10 was added, and cells were split (1:2) on day 2. On day 3 postinfection, the proportion of cells infected with HIV-1 was determined by intracellular p24 staining, as previously described ([46]). Infected flasks were then harvested for immunoprecipitation of HLA-peptide complexes.
# .221-C1402 cells or .221-C1403 cells infected with NL4-3 (1.5 × 10^8 to 2 × 10^8 cells) were harvested, washed in phosphate-buffered saline (PBS), and lysed in 5 mL of lysis buffer (1% IGEPAL 630, 300 mM NaCl, 100 mM Tris [pH 8.0], plus protease inhibitors) at 4°C for 45 min. Two centrifugation steps (2,000 × g for 10 min followed by 20,000 × g for 30 min at 4°C) were next employed to clear the lysates of cell debris prior to overnight capture of HLA-peptide complexes on W6/32-coated protein A‐Sepharose beads. W6/32-bound HLA-peptide complexes were sequentially washed with 10 to 20 mL of wash buffer 1 (0.005% IGEPAL, 50 mM Tris [pH 8.0], 150 mM NaCl, 5 mM EDTA), wash buffer 2 (50 mM Tris [pH 8.0], 150 mM NaCl), wash buffer 3 (50 mM Tris [pH 8.0], 400 mM NaCl), and finally wash buffer 4 (50 mM Tris [pH 8.0]) under gravity flow in Econo-Column glass chromatography columns (Bio-Rad). Peptide-HLA complexes were eluted from the beads with 5 mL of 10% acetic acid and, after drying under vacuum, were loaded onto a 4.6- by 50-mm ProSwift RP-1S column (Thermo Fisher Scientific) and eluted from an Ultimate 3000 HPLC system (Thermo Scientific) using a 500-μL/min flow rate over 10 min from 2% to 34% buffer B (0.1% trifluoroacetic acid [TFA] in acetonitrile) in buffer A (0.1% TFA in water). Alternate fractions were pooled to give two final peptide fractions that were dried for LC-MS/MS analysis.
# Each HPLC-eluted sample was resuspended in 20 μL loading buffer, and 9 μL of it was injected onto a 3-μm-particle-size 0.075-mm by 150-mm Acclaim PepMap RSLC C18 column and further loaded onto a 2-μm-particle-size, 75-μm by 50-cm Acclaim PepMap RSLC C18 column using an Ultimate 3000 nUPLC system (Thermo Scientific). A linear gradient of 3 to 25% buffer B (0.1% formic acid, 5% dimethyl sulfoxide [DMSO] in acetonitrile) in buffer A (0.1% formic acid, 5% DMSO in water) was applied over 1 h to elute peptides from the column (flow rate of […]). Peptides were introduced, using an Easy-Spray source at 2,000 V at 40°C, into a Fusion Lumos mass spectrometer (Thermo Scientific). The ion transfer tube temperature was set to 305°C. […]
# [1] = system: PBMCs from HIV-1-infected HLA-C*14:02+ or HLA-C*14:03+ individuals; experiment: ex vivo IFN-γ ELISPOT assay; assay type: cell-based, human; settings: for Responder (number), 1402+: 30 HLA-C*14:02+ treatment-naive individuals; for Responder (number), 1402+ / Responder (number), 1403+: positive >100 spots/10^6 PBMCs; for Responder (number), 1403+: 30 HLA-C*14:03+ treatment-naive individuals; for frequency of individuals showing responses of >100 spot-forming cells/10^6 PBMCs: 60 HLA-C*14:02/C*14:03 treatment-naive individuals (30 + 30)
Sequence,C1403: peptide identified by LC-MS/MS in HLA-I eluate (HLA-C*14:03),"Responder (number), 1402+ ([1]; 1 μM peptide)","Responder (number), 1403+ ([1]; 1 μM peptide)",frequency of individuals showing responses of >100 spot-forming cells/10^6 PBMCs ([1]; 1 μM peptide),"number of individuals with response, of 60 HLA-C*14+ Japanese individuals ([1]; 1 μM peptide, relatively strong responses)","magnitude of T cell responses, compared between groups ([1]; 60 individuals, HLA-C*14:02+ versus HLA-C*14:03+ (or Gag versus Pol/Nef epitopes), Mann-Whitney test)"
"FMTKALGI [Tat FI8, HIV-1 NL4-3 Tat 38–45 peptide FMTKALGI]",●,–,–,–,–,–
YFPDWQNYT [Nef YT9],●,12,7,31%,–,–
LYNTIAVLY [Gag LY9],●,6,5,18%,11,–
IYHTQGYF [Nef IF8],●,6,6,20%,–,–
KYHSNWRAM [Pol KM9],●,4,0,6.6%,–,significantly higher
"ASGYIEAEV [Pol AV9, HIV-1 NL4-3 Pol 795–803 peptide …]",●,–,–,–,–,–
AFHHVAREL [Nef AL9],●,2,1,5%,–,–
"VYYDPSKDL [Pol VYL9, HIV-1 NL4-3 Pol 472–480 peptide …]",●,–,–,–,–,–
"FLGAAGSTM [Env FM9, HIV-1 NL4-3 Env 522–530 peptide …]",●,–,–,–,–,–
"RFDSRLAF [Nef RF8, HIV-1 NL4-3 Nef 184–191 peptide RFDSRLAF]",●,–,–,–,–,–
"FFREDLAF [Pol FF8, HIV-1 NL4-3 Pol 1–8 peptide FFREDLAF]",●,–,–,–,–,–
AFSPEVIPM [Gag AM9],–,16,18,56%,–,–
